The record followed here is patent publication US7973034B2, “Amide, aryl sulfonamide, aryl urea, and α,β-diketone derived carboxylesterase inhibitors, and their methods of use” (priority 2003, dated 2011).

In assay [1] the target is T1, human acetylcholinesterase (hAcChE) (Homo sapiens, UniProt P22303).
T1 construct: purchased Sigma Biochemicals (St. Louis, Mo.)
In words: biochemical. The class given is biochemical. To be noted: acetylthiocholine substrate; Table 5; read-out: Ki hAcChE. As to the method:
Data was transferred to GraphPad Prism software, and Ki values were calculated as described in the Example above.

The target in assay [2] is T2, human liver carboxylesterase (hCE1) (Homo sapiens, UniProt P23141).
T2 sequence (P23141 18-567): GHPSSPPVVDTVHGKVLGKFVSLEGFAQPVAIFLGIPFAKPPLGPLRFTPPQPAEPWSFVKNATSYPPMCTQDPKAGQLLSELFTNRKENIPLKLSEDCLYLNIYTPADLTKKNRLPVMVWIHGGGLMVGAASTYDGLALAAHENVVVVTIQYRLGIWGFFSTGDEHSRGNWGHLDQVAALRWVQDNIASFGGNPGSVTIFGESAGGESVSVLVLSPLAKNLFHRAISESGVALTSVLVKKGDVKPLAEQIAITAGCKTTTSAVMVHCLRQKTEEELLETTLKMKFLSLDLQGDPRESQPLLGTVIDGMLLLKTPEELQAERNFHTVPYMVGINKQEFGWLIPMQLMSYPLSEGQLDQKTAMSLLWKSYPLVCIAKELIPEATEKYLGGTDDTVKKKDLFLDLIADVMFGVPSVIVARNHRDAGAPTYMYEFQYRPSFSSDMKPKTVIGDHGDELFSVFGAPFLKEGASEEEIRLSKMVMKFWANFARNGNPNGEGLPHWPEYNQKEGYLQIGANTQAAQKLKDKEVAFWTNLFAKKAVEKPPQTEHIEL
The assay is described as follows: biochemical. The format is biochemical. To be noted: o-NPA as substrate; Table 5; read-out: Ki hCE1.

The target in assay [3] is human butyrylcholinesterase (hBuChE) (Homo sapiens, UniProt P06276). In words: biochemical.
Chain of human butyrylcholinesterase (hBuChE) (P06276 29-602): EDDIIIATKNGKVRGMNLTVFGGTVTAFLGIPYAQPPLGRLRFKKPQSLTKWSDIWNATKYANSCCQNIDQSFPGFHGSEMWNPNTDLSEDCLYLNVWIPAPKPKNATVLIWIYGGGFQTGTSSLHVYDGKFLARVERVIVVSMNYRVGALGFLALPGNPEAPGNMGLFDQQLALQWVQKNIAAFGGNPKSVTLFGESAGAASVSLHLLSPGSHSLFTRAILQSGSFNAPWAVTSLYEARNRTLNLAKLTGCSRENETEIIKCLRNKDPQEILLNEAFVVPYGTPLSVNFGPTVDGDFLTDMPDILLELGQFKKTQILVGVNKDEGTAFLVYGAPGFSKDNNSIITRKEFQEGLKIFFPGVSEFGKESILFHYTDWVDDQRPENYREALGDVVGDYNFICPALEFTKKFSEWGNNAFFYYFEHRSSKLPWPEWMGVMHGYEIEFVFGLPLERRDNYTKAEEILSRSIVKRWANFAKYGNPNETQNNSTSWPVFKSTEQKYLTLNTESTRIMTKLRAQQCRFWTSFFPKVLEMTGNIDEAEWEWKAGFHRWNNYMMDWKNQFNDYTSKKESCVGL
Assay [4] deals with T3, human small intestine carboxylesterase (hiCE) (Homo sapiens, UniProt O00748).
T3 sequence (O00748 27-559): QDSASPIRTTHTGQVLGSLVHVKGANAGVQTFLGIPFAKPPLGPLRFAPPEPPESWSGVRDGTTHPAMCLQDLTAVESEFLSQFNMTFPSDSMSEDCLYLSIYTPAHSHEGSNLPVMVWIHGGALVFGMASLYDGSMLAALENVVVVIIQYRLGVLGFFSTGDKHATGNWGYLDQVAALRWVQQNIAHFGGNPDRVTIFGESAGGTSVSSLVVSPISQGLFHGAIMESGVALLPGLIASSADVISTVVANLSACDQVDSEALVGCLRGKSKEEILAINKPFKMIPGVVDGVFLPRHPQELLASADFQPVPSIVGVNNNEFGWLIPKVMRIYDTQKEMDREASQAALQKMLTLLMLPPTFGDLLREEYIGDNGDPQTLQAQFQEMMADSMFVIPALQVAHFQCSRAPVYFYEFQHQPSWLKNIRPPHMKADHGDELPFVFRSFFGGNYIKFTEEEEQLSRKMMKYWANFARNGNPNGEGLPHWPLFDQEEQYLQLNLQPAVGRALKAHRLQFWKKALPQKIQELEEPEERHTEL
The assay is described as follows: biochemical. The format is biochemical. Conditions: for Ki / Ki (hCE1)/Ki (hiCE): o-NPA as substrate; for Ki: Table 5, read-out: Ki hiCE; for Ki (hCE1)/Ki (hiCE): selectivity ratio.

Assay [5] has as its target T4, rabbit liver carboxylesterase (rCE) (Oryctolagus cuniculus, UniProt P12337).
T4 sequence (P12337 19-565): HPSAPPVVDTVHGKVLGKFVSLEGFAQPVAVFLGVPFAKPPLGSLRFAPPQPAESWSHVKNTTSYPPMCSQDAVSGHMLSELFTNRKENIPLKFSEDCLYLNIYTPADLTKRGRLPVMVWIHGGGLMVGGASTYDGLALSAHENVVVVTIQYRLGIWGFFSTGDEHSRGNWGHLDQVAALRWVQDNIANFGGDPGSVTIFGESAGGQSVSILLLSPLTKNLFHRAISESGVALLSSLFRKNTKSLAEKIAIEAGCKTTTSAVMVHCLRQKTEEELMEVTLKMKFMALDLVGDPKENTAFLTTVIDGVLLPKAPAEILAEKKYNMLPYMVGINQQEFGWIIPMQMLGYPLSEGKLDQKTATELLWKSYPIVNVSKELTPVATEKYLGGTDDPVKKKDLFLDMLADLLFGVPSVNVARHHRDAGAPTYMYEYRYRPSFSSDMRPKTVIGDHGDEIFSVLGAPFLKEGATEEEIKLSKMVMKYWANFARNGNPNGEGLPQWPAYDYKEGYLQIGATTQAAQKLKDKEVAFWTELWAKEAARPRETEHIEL
In words: biochemical. The class given is biochemical. Conditions: o-NPA as substrate; Table 5; read-out: Ki rCE.

Assay [6] addresses T5, human intestinal carboxylesterase in U373MGhiCE cells (Homo sapiens, UniProt O00748).
T5 construct: expressed in transfected cells; host or cells: U373MG human glioma cells (U373MGhiCE)
T5 sequence (O00748 27-559): T3 sequence (O00748 27-559)
The assay is described as follows: Inhibition of intracellular carboxylesterase in U373MGhiCE cells. The class given is cell-based. As to the method: To monitor the ability of the compounds to cross the cell membrane and inhibit carboxylesterase activity intracellularly, an assay using human tumor cells expressing hiCE was devised. U373MGhiCE (a human glioma cell line transfected with a plasmid expressing hiCE) were plated in T25 flasks and allowed to grow to confluency (approximately 2-5×10^5 cells). Inhibitors were then added at a final concentration of […], and incubation allowed to continue for 1 hour. At this time, the cells were washed extensively with 5 ml of complete media and 2×5 ml of Hanks balanced salt solution, and cell extracts were prepared. Carboxylesterase activity was then determined using o-NPA as a substrate.
Table 8 sets forth the level of intracellular enzyme inhibition following incubation of human glioblastoma tumor cells expressing human intestinal carboxylesterase with 10 μM of each compound identified in Table 3.

The next assay has as its target T6, hiCE (Homo sapiens, UniProt O00748).
T6 sequence (O00748 27-559): T3 sequence (O00748 27-559)
In words: Inhibition of hiCE-mediated activation of CPT-11 (SN-38 by HPLC). The format is biochemical. The protocol:
Since the sulphonamide compounds identified herein are competitive inhibitors of hiCE, their activity is dependant upon the substrate used. To access the ability of these compounds to inhibit the hiCE-mediated activation of CPT-11, Ki values were determined using CPT-11 as the substrate.
CPT-11 concentrations were fixed at […], and inhibitor concentrations varied from 1 nM to 10 μM. Following incubation for an hour at 37° C., the levels of SN-38 in the reaction mixture was determined by High Performance Liquid Chromatography (HPLC).

[7] abbreviates: CPT-11 as substrate (100 μm), 1 hour at 37° C., read-out: Ki hiCE.

Read-outs that look alike come from different tables or passages of the source. Where only a bound is given, the exact number is not on record here.

T1 sequence (P22303 32-614): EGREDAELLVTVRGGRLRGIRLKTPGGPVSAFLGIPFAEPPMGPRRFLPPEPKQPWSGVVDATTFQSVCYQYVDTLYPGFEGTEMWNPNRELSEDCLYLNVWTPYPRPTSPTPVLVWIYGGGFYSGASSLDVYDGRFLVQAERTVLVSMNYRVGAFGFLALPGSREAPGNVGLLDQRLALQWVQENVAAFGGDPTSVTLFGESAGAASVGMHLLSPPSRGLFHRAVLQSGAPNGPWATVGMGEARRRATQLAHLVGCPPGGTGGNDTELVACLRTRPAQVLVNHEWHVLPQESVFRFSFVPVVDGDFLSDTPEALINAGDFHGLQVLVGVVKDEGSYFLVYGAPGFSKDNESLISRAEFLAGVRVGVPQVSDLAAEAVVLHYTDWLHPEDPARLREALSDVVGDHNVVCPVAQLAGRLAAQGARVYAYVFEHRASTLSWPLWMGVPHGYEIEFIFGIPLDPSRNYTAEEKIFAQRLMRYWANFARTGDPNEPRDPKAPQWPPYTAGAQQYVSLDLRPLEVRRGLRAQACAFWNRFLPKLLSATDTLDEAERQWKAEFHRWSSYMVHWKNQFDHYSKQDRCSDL

In the case of `O=S(=O)(Nc1c(Cl)c(Cl)c(NS(=O)(=O)c2ccccc2)c(Cl)c1Cl)c1ccccc1` [Compound 44, N-{2,3,5,6-tetrachloro-4-[(phenylsulfonyl)amino]phenyl}benzene sulfonamide], the inhibition constant Ki in assay [1] was over 100 µM; in assay [2], over 100 µM; in assay [3], over 100 µM; in assay [4], 0.451 ± 0.039 µM; in assay [5], over 100 µM; on hiCE (setting [7]), over 100 µM. In assay [4] (149 nM or 447 nM inhibitor), the “change in apparent Vmax of hiCE” value is given as “no change”. Also, the “Ki (hCE1)/Ki (hiCE)” value in assay [4] is recorded as over 220. The compound further yielded an inhibition at 10 µM in assay [6] of 0.6%.
Turning to `O=S(=O)(Nc1ccc(Oc2ccccc2)cc1)c1ccc(Br)cc1` [Compound 46, 4-bromo-N-(4-phenoxyphenyl)benzenesulfonamide], the inhibition constant (Ki) in assay [1] is over 100 µM; in assay [2] it was over 100 µM; in assay [3] it was over 100 µM; in assay [4], 0.165 ± 0.033 µM; in assay [5], 0.319 ± 0.037 µM; on hiCE (setting [7]), over 100 µM. Moreover, the “Ki (hCE1)/Ki (hiCE)” value in assay [4] was over 600. The compound further returned an inhibition at 10 µM in assay [6] of 0%.
As for `CS(=O)(=O)Nc1ccc(SSc2ccc(NS(C)(=O)=O)cc2)cc1` [Compound 50, N-[4-({4-[(methylsulfonyl)amino]phenyl}dithio)phenyl]methanesulfonamide], the Ki in assay [1] is over 100 µM; in assay [2], over 100 µM; in assay [3], over 100 µM; in assay [4], 0.767 ± 0.285 µM; in assay [5], 0.739 ± 0.384 µM; at hiCE (setting [7]) it was over 100 µM. Moreover, in assay [4], the “Ki (hCE1)/Ki (hiCE)” value is over 125. For the same compound, in assay [6], the inhibition at 10 µM was 14.6%.
Regarding `Cc1cc(NS(=O)(=O)c2ccccc2)ccc1NS(=O)(=O)c1ccccc1` [Compound 49, N-{2-methyl-4-[(phenylsulfonyl)amino]phenyl}benzene sulfonamide], the Ki is over 100 µM in assay [1]; over 100 µM in assay [2]; over 100 µM in assay [3]; 0.365 ± 0.087 µM in assay [4]; 3.23 µM in assay [5]; 0.238 ± 0.029 µM at hiCE. For the same compound, the “Ki (hCE1)/Ki (hiCE)” value in assay [4] is over 250. Also, the inhibition at 10 µM in assay [6] was 7.6%.
On to `Cc1cc(C)c(S(=O)(=O)Nc2ccccc2)cc1S(=O)(=O)Nc1ccccc1` [Compound 48, 4,6-dimethyl-N,N′-diphenylbenzene-1,3-disulfonamide], for which the Ki in assay [1] is over 100 µM; in assay [2], over 100 µM; in assay [3], over 100 µM; in assay [4], 0.218 ± 0.045 µM; in assay [5], over 100 µM; at hiCE (setting [7]) it was over 100 µM. In addition, the “Ki (hCE1)/Ki (hiCE)” value in assay [4] is on record as over 450. In assay [6], this compound registered an inhibition at 10 µM of 8.9%.
`O=S(=O)(Nc1ccc(NS(=O)(=O)c2ccc(Cl)cc2)cc1)c1ccc(Cl)cc1` [Compound 45, 4-chloro-N-(4-{[(4-chlorophenyl)sulfonyl]amino}phenyl) benzenesulfonamide]: the Ki is over 100 µM in assay [1]; 13.7 µM in assay [2]; over 100 µM in assay [3]; 0.0533 ± 0.0055 µM in assay [4]; 1.2 µM in assay [5]; 0.141 ± 0.064 µM at hiCE. Besides, the “Ki (hCE1)/Ki (hiCE)” value in assay [4] was over 250. Moreover, the inhibition at 10 µM in assay [6] was found to be 7.5%.
As for `CCOc1ccc(NS(=O)(=O)c2ccc(Cl)cc2)cc1` [Compound 52, 4-chloro-N-(4-ethoxyphenyl)benzenesulfonamide], the Ki in assay [1] is over 100 µM; in assay [2], over 100 µM; in assay [3], over 100 µM; in assay [4], 1.31 µM; in assay [5], 2 µM; on hiCE, 3.22 µM. Besides, in assay [4], the “Ki (hCE1)/Ki (hiCE)” value is over 75. The compound further had an inhibition at 10 µM in assay [6] of 9.6%.
As for `O=S(=O)(Nc1ccc(NS(=O)(=O)c2ccccc2)cc1)c1ccccc1` [Compound 51, N-{4-[(phenylsulfonyl)amino]phenyl}benzene sulfonamide], the Ki is over 100 µM in assay [1]; over 100 µM in assay [2]; over 100 µM in assay [3]; 1.06 µM in assay [4]; 1.55 µM in assay [5]; 0.892 ± 0.067 µM on hiCE (setting [7]). Moreover, the “Ki (hCE1)/Ki (hiCE)” value in assay [4] is on record as over 90. In assay [6], this compound showed an inhibition at 10 µM of 5.5%.
With `O=S(=O)(Nc1c(F)c(F)c(NS(=O)(=O)c2ccc(Cl)cc2)c(F)c1F)c1ccc(Cl)cc1` [Compound 59], the Ki in assay [1] is over 100 µM; in assay [2], over 100 µM; in assay [3], over 100 µM; in assay [4], 0.0415 ± 0.0065 µM; in assay [5] it was 0.522 ± 0.144 µM; on hiCE, 0.11 ± 0.023 µM. Further, the “Ki (hCE1)/Ki (hiCE)” value in assay [4] is listed as >2,400. Further, the inhibition at 10 µM in assay [6] is 8.3%.
Regarding `O=S(=O)(Nc1ccc(NS(=O)(=O)c2ccc(Cl)cc2)c2ccccc12)c1ccc(Cl)cc1` [Compound 47, 4-chloro-N-(4-{[(4-chlorophenyl)sulfonyl]amino}-1-naphthyl)benzenesulfonamide], the Ki in assay [1] was over 100 µM; in assay [2], over 100 µM; in assay [3] it was over 100 µM; in assay [4], 0.194 ± 0.023 µM; in assay [5], over 100 µM; at hiCE (setting [7]) it was over 100 µM. For the same compound, the “Ki (hCE1)/Ki (hiCE)” value in assay [4] is on record as over 500. The compound further gave an inhibition at 10 µM in assay [6] of 9.2%.
